From US20090239841A1, “Diaryl Ureas as CB1 Antagonists” (priority 2004, published 2009)

Biological target: T1, hCB1 (Homo sapiens, UniProt P21554)
T1 construct: made in house; host or cells: Sf9 insect cells (baculovirus), P2 membranes
Assay: Agonist-induced GTP binding (GTPγ35S) assay at CB1, Example 8
Type: biochemical
Conditions: IC50 at CB1, determined as described in Example 8; read-out: IC50
Method in brief: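 Membranes from Sf9 cells co-expressing hCB1 and heterotrimeric G-protein (10 μg protein) in Tris pH 7.4 buffer with 5 μM GDP. Test compounds (10^−10–10^−5 M) competed against 1 nM CP55,940 with […] GTPγ35S, 60 min at room temperature. Filter-bound radioactivity by scintillation, expressed as percent above basal.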

T1 sequence (P21554 whole entry): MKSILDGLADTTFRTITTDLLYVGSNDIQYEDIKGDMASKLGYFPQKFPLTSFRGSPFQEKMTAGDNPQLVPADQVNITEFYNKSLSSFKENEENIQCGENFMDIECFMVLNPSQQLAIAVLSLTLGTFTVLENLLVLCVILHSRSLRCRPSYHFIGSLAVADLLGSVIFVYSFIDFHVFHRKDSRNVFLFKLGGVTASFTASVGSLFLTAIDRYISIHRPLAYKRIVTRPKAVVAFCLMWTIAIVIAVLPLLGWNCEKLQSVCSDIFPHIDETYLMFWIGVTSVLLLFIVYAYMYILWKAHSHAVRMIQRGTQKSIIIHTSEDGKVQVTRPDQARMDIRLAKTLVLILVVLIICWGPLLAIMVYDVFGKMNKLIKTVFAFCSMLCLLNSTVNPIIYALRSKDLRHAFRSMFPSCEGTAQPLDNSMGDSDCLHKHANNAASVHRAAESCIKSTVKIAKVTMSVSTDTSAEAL

Row | IC50 [nM] | SMILES
1 | < 2000 | Cc1cccc(NC(=O)Nc2ccc(OC(F)F)cc2)n1 [Compound 633, 1-[4-(difluoromethoxy)phenyl]-3-(6-methylpyridin-2-yl)urea]
2 | < 2000 | O=C(Nc1ccc(OC(F)F)cc1)Nc1ccc(Cl)cn1 [Compound 634, 1-(5-chloropyridin-2-yl)-3-[4-(difluoromethoxy)phenyl]urea]
3 | < 2000 | CCc1ccc(NC(=O)Nc2ccc(C#N)cn2)cc1 [Compound 636, 1-(5-cyanopyridin-2-yl)-3-(4-ethylphenyl)urea]
4 | < 2000 | CC(=O)c1ccc(NC(=O)Nc2ccc(Cl)nc2)cc1 [Compound 637, 1-(4-acetylphenyl)-3-(6-chloropyridin-3-yl)urea]
5 | < 2000 | CCc1ccc(NC(=O)Nc2ccccn2)cc1 [Compound 638, 1-(4-ethylphenyl)-3-pyridin-2-ylurea]
6 | < 2000 | CCc1ccc(NC(=O)Nc2ncccc2C)cc1 [Compound 639, 1-(4-ethylphenyl)-3-(3-methylpyridin-2-yl)urea]
7 | < 2000 | CCc1ccc(NC(=O)Nc2cc(C)ccn2)cc1 [Compound 640, 1-(4-ethylphenyl)-3-(4-methylpyridin-2-yl)urea]
8 | < 2000 | CCc1ccc(NC(=O)Nc2ccc(C)cn2)cc1 [Compound 641, 1-(4-ethylphenyl)-3-(5-methylpyridin-2-yl)urea]
9 | < 2000 | CCc1ccc(NC(=O)Nc2cc(OC)ncn2)cc1 [Compound 642, 1-(4-ethylphenyl)-3-(6-methoxypyrimidin-4-yl)urea]
10 | < 2000 | CCOC(=O)c1cccc(NC(=O)Nc2ccc(C)cc2)c1 [Compound 643, ethyl 3-({[(4-methylphenyl)amino]carbonyl}amino)benzoate]
11 | < 2000 | CCOC(=O)c1cccc(NC(=O)Nc2ccc(F)cc2)c1 [Compound 644, ethyl 3-({[(4-fluorophenyl)amino]carbonyl}amino)benzoate]
12 | < 2000 | CCc1ccc(NC(=O)Nc2cccc(C(=O)OC)c2)cc1 [Compound 645, methyl 3-({[(4-ethylphenyl)amino]carbonyl}amino)benzoate]
13 | < 2000 | CCOC(=O)c1cccc(NC(=O)Nc2ccc(CC)cc2)c1 [Compound 646, ethyl 3-({[(4-ethylphenyl)amino]carbonyl}amino)benzoate]
14 | < 2000 | COC(=O)c1cccc(NC(=O)Nc2ccc(Cl)cc2)c1 [Compound 647, methyl 3-({[(4-chlorophenyl)amino]carbonyl}amino)benzoate]
15 | < 2000 | CCOC(=O)c1cccc(NC(=O)Nc2ccc(Cl)cc2)c1 [Compound 648, ethyl 3-({[(4-chlorophenyl)amino]carbonyl}amino)benzoate]
16 | < 2000 | CCOC(=O)c1cccc(NC(=O)Nc2ccc(C(C)C)cc2)c1 [Compound 649, ethyl 3-({[(4-isopropylphenyl)amino]carbonyl}amino)benzoate]
17 | < 2000 | CCCc1ccc(NC(=O)Nc2cccc(C(=O)OC)c2)cc1 [Compound 650, methyl 3-({[(4-propylphenyl)amino]carbonyl}amino)benzoate]
18 | < 2000 | CCCc1ccc(NC(=O)Nc2ccc(C(=O)OC)cc2)cc1 [Compound 651, methyl 4-({[(4-propylphenyl)amino]carbonyl}amino)benzoate]
19 | < 2000 | CCCc1ccc(NC(=O)Nc2cccc(C(=O)OCC)c2)cc1 [Compound 652, ethyl 3-({[(4-propylphenyl)amino]carbonyl}amino)benzoate]
20 | < 2000 | CCCc1ccc(NC(=O)Nc2ccc(C(=O)OCC)cc2)cc1 [Compound 653, ethyl 4-({[(4-propylphenyl)amino]carbonyl}amino)benzoate]

Row | IC50 [nM] | SMILES
21 | < 2000 | CCCc1ccc(NC(=O)Nc2ccc(C)c(C)c2)cc1 [Compound 654, 1-(3,4-dimethylphenyl)-3-(4-propylphenyl)urea]
22 | < 2000 | CCCc1ccc(NC(=O)Nc2ccc(C)c(F)c2)cc1 [Compound 655, 1-(3-fluoro-4-methylphenyl)-3-(4-propylphenyl)urea]
23 | < 2000 | CCCc1ccc(NC(=O)Nc2ccc(F)c(C)c2)cc1 [Compound 656, 1-(4-fluoro-3-methylphenyl)-3-(4-propylphenyl)urea]
24 | < 2000 | CCc1ccc(NC(=O)Nc2cc(F)cc(F)c2)cc1 [Compound 657, 1-(3,5-difluorophenyl)-3-(4-ethylphenyl)urea]
25 | < 2000 | CCCc1ccc(NC(=O)Nc2cc(C)cc(C)c2)cc1 [Compound 658, 1-(3,5-dimethylphenyl)-3-(4-propylphenyl)urea]
26 | < 2000 | CCOc1cccc(NC(=O)Nc2cccc(C(=O)OC)c2)c1 [Compound 659, methyl 3-({[(3-ethoxyphenyl)amino]carbonyl}amino)benzoate]
27 | < 2000 | CCOc1cccc(NC(=O)Nc2ccc(C(=O)OC)cc2)c1 [Compound 660, methyl 4-({[(3-ethoxyphenyl)amino]carbonyl}amino)benzoate]
28 | < 2000 | CCOC(=O)c1cccc(NC(=O)Nc2cccc(OCC)c2)c1 [Compound 661, ethyl 3-({[(3-ethoxyphenyl)amino]carbonyl}amino)benzoate]
29 | < 2000 | CCOC(=O)c1ccc(NC(=O)Nc2cccc(OCC)c2)cc1 [Compound 662, ethyl 4-({[(3-ethoxyphenyl)amino]carbonyl}amino)benzoate]
30 | < 2000 | CCOc1ccc(NC(=O)Nc2cccc(C(=O)OC)c2)cc1 [Compound 663, methyl 3-({[(4-ethoxyphenyl)amino]carbonyl}amino)benzoate]
31 | < 2000 | CCOC(=O)c1cccc(NC(=O)Nc2ccc(OCC)cc2)c1 [Compound 664, ethyl 3-({[(4-ethoxyphenyl)amino]carbonyl}amino)benzoate]
32 | < 2000 | COCc1cccc(NC(=O)Nc2ccc(C(=O)OC)cc2)c1 [Compound 665, methyl 4-[({[3-(methoxymethyl)phenyl]amino}carbonyl)amino]benzoate]
33 | < 2000 | CCOC(=O)c1ccc(NC(=O)Nc2cccc(COC)c2)cc1 [Compound 666, ethyl 4-[({[3-(methoxymethyl)phenyl]amino}carbonyl)amino]benzoate]
34 | < 2000 | COCc1ccc(NC(=O)Nc2cccc(C(=O)OC)c2)cc1 [Compound 667, methyl 3-[({[4-(methoxymethyl)phenyl]amino}carbonyl)amino]benzoate]
35 | < 2000 | COCc1ccc(NC(=O)Nc2ccc(C(=O)OC)cc2)cc1 [Compound 668, methyl 4-[({[4-(methoxymethyl)phenyl]amino}carbonyl)amino]benzoate]
36 | < 2000 | CCOC(=O)c1cccc(NC(=O)Nc2ccc(COC)cc2)c1 [Compound 669, ethyl 3-[({[4-(methoxymethyl)phenyl]amino}carbonyl)amino]benzoate]
37 | < 2000 | CCOC(=O)c1ccc(NC(=O)Nc2ccc(COC)cc2)cc1 [Compound 670, ethyl 4-[({[4-(methymethyl)phenyl]amino}carbonyl)amino]benzoate]
38 | < 2000 | CCCOc1ccc(NC(=O)Nc2cccc(C(=O)OCC)c2)cc1 [Compound 671, ethyl 3-({[(4-propoxyphenyl)amino]carbonyl}amino)benzoate]
39 | < 2000 | CCOC(=O)c1cccc(NC(=O)Nc2cccc(OC(C)C)c2)c1 [Compound 672, ethyl 3-({[(3-isopropoxyphenyl)amino]carbonyl}amino)benzoate]
